Data as given in patent US20020147237A1, “Preservation of bodily protein” (priority 2001, published 2002).

Assays:
[1] = system: anaesthetised piglet model; assay: blood gas and hemodynamic variables in anaesthetised piglets during i.v. infusion; format: in vivo; conditions: 60 min
Description: (§1) Food was withheld from the animals for twelve hours prior to the experiment, but they had free access to water. […] In addition, all animals were given an intravenous bolus of morphine 1 mg·kg^-1 and, following tracheotomy, pancuronium bromide 0.3 mg·kg^-1. […] After the last measurements, still under anaesthesia, the animals were killed with an overdose of potassium chloride. After induction of anaesthesia the animals were tracheotomised and ventilated through an 8 mm endotracheal tube (Mallincrodt Laboratories, Athlone, Ireland) with a Servo ventilator […] ([…], Solna, Sweden). Ventilation was maintained at 25 breaths per minute with a positive end-expiratory pressure of 5 cm of H2O. […] The body temperature was kept stable by means of a thermostat controlled heating pad and warmed intravenous infusions. After skin incisions, a catheter was introduced in the left external jugular vein and advanced to the right hepatic vein under fluoroscopic control. Its position was confirmed by a contrast injection. The right external jugular vein was used for placement of a central venous catheter and a 7F pulmonary artery thermodilution catheter. An arterial catheter was inserted in a subclavian branch and advanced to a central position. Through a small suprapubic incision, a urinary catheter was placed in the bladder. A cutdown was made to place an ultrasonic flow probe (Transonic Systems Inc., Ithaca, N.Y., USA) around the femoral artery and to cannulate the femoral vein for blood sampling. Arterial blood gases were analysed on an ABL300/OSM3 system (Radiometer, Copenhagen, Denmark). […] The column eluate was mixed with ninhydrin reagent for amino acid detection. […] Blood glucose was analysed on a Reflolux® II (Boehringer Mannheim, Germany), using the glucose-oxidase/peroxidase reaction. Arterial and hepatic venous blood was drawn for calculations of splanchnic blood flow. […] The mean value of at least three measurements was adopted. Calculation of splanchnic blood flow was carried out according to the constant dye infusion technique (10). […] Splanchnic plasma flow was calculated according to a formula derived from Fick's principle: [formula] […] Femoral artery plasma flow was calculated as blood flow (1-EVF). The turnover of amino acids, ammonium and urea were calculated as plasma flow times the arterio-venous plasma concentration difference with negative values indicating release and positive values uptake. After anaesthesia and surgical preparation the piglets were allowed a stabilisation period of one hour and randomly assigned to either Group 1 or Group 2.

[2] = system: anaesthetised piglet model; assay: arterial plasma amino acid, NH4, urea and blood glucose concentrations in anaesthetised piglets; format: in vivo; conditions: for arterial glutamine level after 60 minutes (in words): after one hour of infusion of the single substance
Description: Food was withheld from the animals for twelve hours prior to the experiment, but they had free access to water. Anaesthesia was induced by an intramuscular injection of xylazine 2.2 mg·kg^-1, tiletamine 3 mg·kg^-1+zolazepam 3 mg·kg^-1 and atropine 0.04 mg·kg^-1. In addition, all animals were given an intravenous bolus of morphine 1 mg·kg^-1 and, following tracheotomy, pancuronium bromide 0.3 mg·kg^-1. […] After the last measurements, still under anaesthesia, the animals were killed with an overdose of potassium chloride. After induction of anaesthesia the animals were tracheotomised and ventilated through an 8 mm endotracheal tube (Mallincrodt Laboratories, Athlone, Ireland) with a Servo ventilator […] ([…], Solna, Sweden). Ventilation was maintained at 25 breaths per minute with a positive end-expiratory pressure of 5 cm of H2O. […] The body temperature was kept stable by means of a thermostat controlled heating pad and warmed intravenous infusions. After skin incisions, a catheter was introduced in the left external jugular vein and advanced to the right hepatic vein under fluoroscopic control. Its position was confirmed by a contrast injection. The right external jugular vein was used for placement of a central venous catheter and a 7F pulmonary artery thermodilution catheter. An arterial catheter was inserted in a subclavian branch and advanced to a central position. Through a small suprapubic incision, a urinary catheter was placed in the bladder. A cutdown was made to place an ultrasonic flow probe (Transonic Systems Inc., Ithaca, N.Y., USA) around the femoral artery and to cannulate the femoral vein for blood sampling. Arterial blood gases were analysed on an ABL300/OSM3 system (Radiometer, Copenhagen, Denmark). […] The column eluate was mixed with ninhydrin reagent for amino acid detection. […] Blood glucose was analysed on a Reflolux® II (Boehringer Mannheim, Germany), using the glucose-oxidase/peroxidase reaction. Arterial and hepatic venous blood was drawn for calculations of splanchnic blood flow. […] The mean value of at least three measurements was adopted. After anaesthesia and surgical preparation the piglets were allowed a stabilisation period of one hour and randomly assigned to either Group 1 or Group 2.

splanchnic area = assay: splanchnic turnover (plasma flow times arterio-venous difference; negative = release, positive = uptake); format: in vivo, piglets; conditions: 60 min
Description: as §1

hind leg skeletal muscle = assay: hind leg turnover (plasma flow times arterio-venous difference; negative = release, positive = uptake); format: in vivo, piglets; conditions: Group 1; 60 min; Dosage 1: NH4+ 12.3 μmol·kg^−1·min^−1 i.v. alone
Description: Food was withheld from the animals for twelve hours prior to the experiment, but they had free access to water. […] In addition, all animals were given an intravenous bolus of morphine 1 mg·kg^-1 and, following tracheotomy, pancuronium bromide 0.3 mg·kg^-1. […] After the last measurements, still under anaesthesia, the animals were killed with an overdose of potassium chloride. After induction of anaesthesia the animals were tracheotomised and ventilated through an 8 mm endotracheal tube (Mallincrodt Laboratories, Athlone, Ireland) with a Servo ventilator […] ([…], Solna, Sweden). […] The body temperature was kept stable by means of a thermostat controlled heating pad and warmed intravenous infusions. After skin incisions, a catheter was introduced in the left external jugular vein and advanced to the right hepatic vein under fluoroscopic control. Its position was confirmed by a contrast injection. The right external jugular vein was used for placement of a central venous catheter and a 7F pulmonary artery thermodilution catheter. An arterial catheter was inserted in a subclavian branch and advanced to a central position. Through a small suprapubic incision, a urinary catheter was placed in the bladder. A cutdown was made to place an ultrasonic flow probe (Transonic Systems Inc., Ithaca, N.Y., USA) around the femoral artery and to cannulate the femoral vein for blood sampling. Arterial blood gases were analysed on an ABL300/OSM3 system (Radiometer, Copenhagen, Denmark). […] The column eluate was mixed with ninhydrin reagent for amino acid detection. […] Blood glucose was analysed on a Reflolux® II (Boehringer Mannheim, Germany), using the glucose-oxidase/peroxidase reaction. Arterial and hepatic venous blood was drawn for calculations of splanchnic blood flow. […] The mean value of at least three measurements was adopted. […] Femoral artery plasma flow was calculated as blood flow (1-EVF). The turnover of amino acids, ammonium and urea were calculated as plasma flow times the arterio-venous plasma concentration difference with negative values indicating release and positive values uptake. After anaesthesia and surgical preparation the piglets were allowed a stabilisation period of one hour and randomly assigned to either Group 1 or Group 2.

[3] = Group 2, Dosage 1: α-ketoglutarate 2.85 μmol·kg^−1·min^−1 i.v. alone
[4] = Group 2, 60 min, Dosage 1: α-ketoglutarate 2.85 μmol·kg^−1·min^−1 i.v. alone
[5] = Group 1, Dosage 1: NH4+ 12.3 μmol·kg^−1·min^−1 i.v. alone
[6] = Group 1, 60 min, Dosage 1: NH4+ 12.3 μmol·kg^−1·min^−1 i.v. alone

SMILES: O=C(O)CCC(=O)C(=O)O [α-KGA, α-ketoglutaric acid]
- Arterial pH [1, 3]: 7.47 ± 0.01
- C.O. [1, 3]: 144 ± 10 a ml · min^−1 kg^−1
- PaCO2 [1, 3]: 5.27 ± 0.06 kPa
- Glucose concentration [2, 4]: 5.6 ± 0.4 mmol/L
- arterial Alanine concentration [2, 4]: 462 ± 34 µmol/L
- arterial Arginine concentration [2, 4]: 75 ± 5 µmol/L
- arterial Glutamate concentration [2, 4]: 264 ± 32 µmol/L
- arterial Glutamine concentration [2, 4]: 361 ± 24 z μmol · L^−1
- arterial Urea concentration [2, 4]: 2.7 ± 0.2 mmol/L
- drop of arterial glutamine concentration compared to the baseline level ([2]; Group 2, after one hour of α-KGA infusion alone): 9±2%
- arterial glutamine level after 60 minutes (in words) [2]: decreased
- FE (%)-NH4^+, splanchinc (splanchnic area; [3]): 28 ± 10%

SMILES: Cl.N [NH4Cl, ammonium chloride]
- Arterial pH [1, 5]: 7.43 ± 0.01 a
- C.O. [1, 5]: 138 ± 17 mL/min/kg
- Leg blood flow [1, 5]: 4.7 ± 0.4 mL/min/kg
- PaCO2 [1, 5]: 5.18 ± 0.06 kPa
- Spl. blood flow [1, 5]: 43 ± 5 mL/min/kg
- Leg blood flow ([1]; Group 1, Dosage 1: NH4+ 12.3 μmol·kg^−1·min^−1 i.v. alone, listed as ammonium chloride): 4.7 ± 0.4 a ml · min^−1 · kg^−1
- Glucose concentration [2, 6]: 5.5 ± 0.5 mmol/L
- arterial Alanine concentration [2, 6]: 412 ± 44 a μmol · L^−1
- arterial Arginine concentration [2, 6]: 80 ± 8 µmol/L
- arterial Glutamate concentration [2, 6]: 191 ± 20 µmol/L
- arterial Glutamine concentration [2, 6]: 450 ± 26 a μmol · L^−1
- arterial NH4^+ concentration [2, 6]: 135 ± 14 a μmol · L^−1
- arterial Total AA concentration [2, 6]: 3034 ± 139 µmol/L
- arterial Urea concentration [2, 6]: 3.4 ± 0.3 mmol/L
- arterial glutamine level after 60 minutes (in words) [2]: increased
- Alanine turnover, splanchinc (splanchnic area; [5]): 2.22 ± 0.28 µmol/min/kg
- Arginine turnover, splanchinc (splanchnic area; [5]): -0.23 ± 0.10 µmol/min/kg
- FE (%)-NH4^+, splanchinc (splanchnic area; [5]): 81 ± 4 a %
- Glutamate turnover, splanchinc (splanchnic area; [5]): -4.32 ± 0.28 µmol/min/kg
- Glutamine turnover, splanchinc (splanchnic area; [5]): 2.59 ± 0.56 µmol/min/kg
- NH4^+ turnover, splanchinc (splanchnic area; [5]): 3.09 ± 0.28 a μmol·min^−1·kg^−1
- Total AA turnover, splanchinc (splanchnic area; [5]): 3.93 ± 2.08 µmol/min/kg
- Urea turnover, splanchinc (splanchnic area; [5]): -3.2 ± 1.4 µmol/min/kg
- Alanine turnover, hind leg (hind leg skeletal muscle): -0.13 ± 0.04 µmol/min/kg
- Arginine turnover, hind leg (hind leg skeletal muscle): 0.01 ± 0.005 µmol/min/kg
- FE (%)-NH4^+, hind leg (hind leg skeletal muscle): 46 ± 3 a %
- Glutamate turnover, hind leg (hind leg skeletal muscle): 0.22 ± 0.03 µmol/min/kg
- Glutamine turnover, hind leg (hind leg skeletal muscle): -0.09 ± 0.04 µmol/min/kg
- NH4^+ turnover, hind leg (hind leg skeletal muscle): 0.22 ± 0.03 a μmol·min^−1·kg^−1
- Total AA turnover, hind leg (hind leg skeletal muscle): 0.12 ± 0.23 µmol/min/kg
- Urea turnover, hind leg (hind leg skeletal muscle): 0.2 ± 0.2 µmol/min/kg
